From article PMC9179928 (Journal of medicinal chemistry, 2021)

What was measured:
EV-D68 US/KY/14-18953 = experiment: CPE assay, EV-D68 US/KY/14-18953 in RD cells; assay type: cell-based, enterovirus D68; conditions: vs 7a
EV-D68 2C-D323G mutant = assay type: binding; conditions: 7d at 100 μM
EV-D68 2C-D183V mutant = assay type: binding; conditions: 7d at 100 μM
CVB3 2C protein = CVB3 2C protein (Coxsackievirus B3, UniProt P03313); assay type: binding; conditions: 7d at 10, 30, 100 and 300 μM
[1] = tested on: EV-D68 and EV-A71 strains; experiment: organism not typed; assay type: cell-based; conditions: for EC50: RD, read-out: EC50 values against all EV-D68 and EV-A71 strains tested; for selectivity index over all EV-D68 and EV-A71 strains tested: strains of Table 2, RD cells
[2] = tested on: EV-D68 2C-D183V/D323G double mutant; assay type: binding; conditions: 7d at 100 μM
EV-A71 2C protein = assay type: binding; conditions: 7d at 10, 30, 100 and 300 μM
EV-D68 US/MO/14-18947 [3] = experiment: Plaque assay, EV-D68 US/MO/14-18947 in RD cells; assay type: cell-based, enterovirus D68; conditions: at 3 μM, positive control
EV-D68 US/MO/14-18947 [4] = experiment: Immunofluorescence assay; assay type: cell-based, enterovirus D68; conditions: at 50 μM, SH-SY5Y cells, positive control

SMILES	improvement in antiviral efficacy compared to the original hit 7a against EV-D68 virus (EV-D68 US/KY/14-18953)	EC50 [1] [nM]	further results
CC(C)n1ncc2c(C(=O)NCCN3CCCC3)cc(C3CC3)nc21 [7b, 6-cyclopropyl-1-(propan-2-yl)-N-[2-(pyrrolidin-1-yl)ethyl]-1H-pyrazolo[3,4-b]pyridine-4-carboxamide]	more than 100 fold		
CC(C)n1ncc2c(C(=O)NCCN(C)C)cc(C3CC3)nc21 [7d, 6-cyclopropyl-N-[2-(dimethylamino)ethyl]-1-(propan-2-yl)-1H-pyrazolo[3,4-b]pyridine-4-carboxamide]	more than 100 fold	40 to 100	ΔTm, 2C-D323G mutant (EV-D68 2C-D323G mutant): 3.92 °C; ΔTm, 2C-D183V mutant (EV-D68 2C-D183V mutant): 0.01 °C; binding to CVB3 2C protein (CVB3 2C protein): dose-dependent binding; ΔTm, 2C-D183V/D323G double mutant [2]: 0.61 °C; binding to EV-A71 2C protein (EV-A71 2C protein): dose-dependent binding
CC(CN(C)C)NC(=O)c1cc(C2CC2)nc2c1cnn2C(C)C (stereo not drawn) [7f, 6-cyclopropyl-N-[1-(dimethylamino)propan-2-yl]-1-(propan-2-yl)-1H-pyrazolo[3,4-b]pyridine-4-carboxamide]	more than 100 fold		
CC(C)n1ncc2c(C(=O)NC3CCN(C)C3)cc(C3CC3)nc21 (stereo not drawn) [7g, 6-cyclopropyl-N-(1-methylpyrrolidin-3-yl)-1-(propan-2-yl)-1H-pyrazolo[3,4-b]pyridine-4-carboxamide]	more than 100 fold		
CNCCNC(=O)c1cc(C2CC2)nc2c1cnn2C(C)C [7h, 6-cyclopropyl-N-[2-(methylamino)ethyl]-1-(propan-2-yl)-1H-pyrazolo[3,4-b]pyridine-4-carboxamide]	more than 100 fold	60 to 300	selectivity index over all EV-D68 and EV-A71 strains tested [1]: over 700
CC(C)c1cc(C(=O)NCCN(C)C)c2cnn(C(C)C)c2n1 [10a, N-[2-(dimethylamino)ethyl]-1,6-bis(propan-2-yl)-1H-pyrazolo[3,4-b]pyridine-4-carboxamide]		60 to 300	selectivity index over all EV-D68 and EV-A71 strains tested [1]: over 700
CCC[C@H](NC(=O)[C@@H]1[C@H]2CCC[C@H]2CN1C(=O)[C@@H](NC(=O)[C@@H](NC(=O)c1cnccn1)C1CCCCC1)C(C)(C)C)C(=O)C(=O)NC1CC1 [Telaprevir]			inhibition of plaque formation (EV-D68 US/MO/14-18947 [3]): complete inhibition of plaque formation
Cc1cc(C(=O)NCCN(C)C)c2c(C)nn(C(C)(C)C)c2n1 [compound 19, 1-tert-butyl-N-[2-(dimethylamino)ethyl]-3,6-dimethyl-1H-pyrazolo[3,4-b]pyridine-4-carboxamide]		400 to 7400	
Cc1cc(CCCOc2c(C)cc(-c3noc(C(F)(F)F)n3)cc2C)on1 [pleconaril]			viral replication (VP1 fluorescence signal) (EV-D68 US/MO/14-18947 [4]): completely abolished viral replication
